Assay results from US9657088B2, “Anti-HSV antibody” (priority 2009, dated 2017).
Entries after “also recorded” stand apart in the source; their conditions may differ. Read-outs that look alike come from different tables or passages of the source.

Columns and labels:
HSV-1 = assay: Plaque-reduction assay with or without human complement; format: cell-based; settings: 2 μg/ml, with or without 10% human complement
[1] = test system: truncated HSV-1 glycoprotein B (gB) expressed in COS-1 cells; format: binding
HSV-1 F [2] = assay: Pre- versus post-attachment neutralization assay; format: cell-based; settings: 100 TCID50 HSV-1, 4° C., Vero cells
Experimental: The highest antibody and polyvalent human IgG titer, respectively, preventing virus induced cytopathic effect (CPE) in ten individual inoculated cell monolayers to 100% and 50% relative to controls were determined after 72 h incubation at 37° C. and being considered as the endpoint. Standard errors of the mean of three independent experiments were <0.1.
Neutralization titers were determined after 72 h as described in the standard neutralization assay above.

HSV-1 F [3] = assay: Passive immunization of NOD/SCID mice 24 h before intravaginal HSV-1 challenge; format: in vivo
Experimental: Mice were infected intravaginally with 1×10^6 TCID50/20 μl of the neurovirulent HSV-1 strain F. Infected mice with symptoms of weight loss, vulvitis/vaginitis or neurological diseases were killed, and their organs examined for infectious virus by titration on Vero cell monolayers as described previously. Non-infected mice were killed at day 30. Animals per group n=7.
Animals per group n=7 for PBS, n=9 all other groups.
Anesthetized female nonobese diabetic/severe combined immunodeficient (NOD-SCID) mice (NOD.CB17-Prkdc^scid/J, Charles River Laboratories, Research Models and Services, Sulzfeld, Germany), 6-8 weeks of age, were challenged intravaginally with 20 μl inoculum of 1×10^6 TCID50 HSV-1 F per mouse. Skin glue (Epiglu, Meyer-Haake Medical Innovations, Wehrheim, Germany) was applied onto the vulva to prevent discharge of the virus inoculum. […] Mice were examined daily after viral inoculation for loss of weight, vulvitis/vaginitis (redness, mucopurulent discharge and signs of inflammation) and neurological disease. Mice displaying any of theses symptoms were sacrificed immediately. […] Mice were assessed for infection by determination of virus titers from vaginal irrigations obtained on days 1, 2, 4, 6 and 8 after infection and at the time of death using the endpoint dilution assay on Vero cells. Viral loads in organs (spleen, adrenal gland, lung heart, liver, kidney, spinal cord, and brain) of sacrificed mice were determined after homogenization of organs by titration on Vero cell monolayers as described elsewhere (41). Each test and control group contained 9-10 animals with detectable HSV-1 infection.
Natural killer (NK) cells accumulating at the site of HSV-2 infection in humans (28) are the early source of interferon-γ (45), which plays an essential role for the control of HSV infection (2, 45, 62).

HSV1 strain 342 hv = settings: administration 24 h prior to viral inoculation; cited from earlier work

Substance: mAb 2c: murine monoclonal IgG2a antibody specific for glycoprotein B of HSV1 and HSV2; VH SEQ ID NO: 9, VL SEQ ID NO: 10
- complement dependence of HSV neutralization (HSV-1): neutralize HSV complement-independent
- Reactivity ([1]; gB(1-470)): −
- Reactivity ([1]; gB(1-487)): +
- Reactivity ([1]; gB(1-503)): +
- Reactivity ([1]; gB(1-505)): +
- Reactivity ([1]; gB(1-630)): +
- Reactivity ([1]; gB(1-720)): +
- Reactivity ([1]; gB(1-904) (full length gB)): +
- Reactivity ([1]; pSVL, expression vector, negative control): −
- pre-attachment versus post-attachment neutralization (HSV-1 F [2]): Equal neutralization efficacy
- Median survival time prolonged compared to PBS control (HSV-1 F [3]; 5 mg/kg i.v., 24 h prior to challenge): 2.6 fold
- protection against lethal encephalitis (HSV-1 F [3]; 15 mg/kg i.v., 24 h prior to infection): fully protected against lethal encephalitis; also recorded: full protection
- Viral titres in organs of protected mice (HSV-1 F [3]; 15 mg/kg, detection limit): < 1×10^2 TCID50
- protection against lethal infection (HSV-1 F [3]; low antibody doses (2.5 mg/kg, 5 mg/kg)): not fully protected against lethal infection
- survival (HSV-1 F [3]; single i.v. dose of 5 mg/kg, 24 h prior to infection): prolongs the survival
- protection against infection (HSV1 strain 342 hv): efficiently protected the animals against infection
